Experimental data taken from patent US20050182124A1, “Ester bacteriostat for stabilizing cosmetics” (VAMA FARMACOSMETICA S.r.l., priority 2004, published 2005).
In brackets after ≈: the same amount, converted by molar mass. Read-outs that look alike come from different tables or passages of the source.

Columns and labels:
skin = test: Patch test (finn chamber) for skin compatibility: primary irritation and allergic response; assay type: in vivo, human; details: 25 healthy volunteers; about 20 μg solid product on the back, finn chamber 48 hours; read 15 mins, 1 hr and 24 hrs after removal
Description: The skin compatibility of the bacteriostat according to the invention, in terms of anergic response and of primary Irritation. was tested with the following patch tests.
A panel of 25 healthy volunteers was subjected to the application onto the back of about 20 μg of solid product with the use of a “finn chamber” (patch test). After 48 hours the “finn chamber” was removed and the skin reactions after 15 mins, 1 hr and 24 hrs from removal were clinically evaluated.

Pseudomonas aeruginosa = test: MIC (Minimal Inhibition Concentration) test on bacterial colonies; assay type: cell-based; details: read-out: MIC (Minimal Inhibition Concentration)
Description: (§1) With the purpose of evaluating the bacteriostatic activity of the bacteriostats of the invention, the following MIC (Minimal Inhibition Concentration) tests were carried out on bacterial colonies of “Pseudomonas aeruginosa” (Pa) and of “Staphylococcus aureus” (Sa), respectively with pure phenoxyethanol of formula (IV) and with phenoxyethanol ester of PCA of formula (V) of the invention.

Staphylococcus aureus = test: as above; assay type: cell-based; details: read-out: MIC (Minimal Inhibition Concentration)
Description: as §1

| SMILES | skin irritation (primary irritation) in patch test (skin) | skin sensitization in patch test (skin) | MIC (Pseudomonas aeruginosa; Pseudomonas aeruginosa (Pa)) [µg/mL] | MIC (Staphylococcus aureus; Staphylococcus aureus (Sa)) [µg/mL] | MIC (Pseudomonas aeruginosa; Pseudomonas aeruginosa) [µg/mL] | MIC (Staphylococcus aureus; Staphylococcus aureus) [µg/mL] |
| --- | --- | --- | --- | --- | --- | --- |
| O=C1CCC(C(=O)OCCOc2ccccc2)N1 (stereo not shown) [PCA Ester, phenoxyethanol ester of PCA] | not to be irritating | did not sensitize the skin | 1000 (≈ 4.01 mM) | 1000 (≈ 4.01 mM) | – | – |
| OCCOc1ccccc1 [phenoxyethanol, 2-phenoxyethanol, reference compound] | moderately irritating | – | – | – | 3200 (≈ 23.2 mM) | 6400 (≈ 46.3 mM) |
